According to patent US20220265659A1, “METHODS AND COMPOSITIONS FOR TREATING PAX6-DEFICIENCY RELATED DISEASE” (INSERM (INSTITUT NATIONAL DE LA SANTÉ ET DE AL RECHERCHE …, priority 2019, published 2022):

Experiments:
[1] = tested on: PAX6-target gene expression; assay: qRT-PCR analysis of PAX6-target gene expression in rescue experiments; format: cell-based, Human; conditions: mutated limbal stem cells
Procedure: (§1) Cells and culture conditions: Human mutated limbal epithelial stem cells (mut-LSCs) were obtained by genome editing (Crispr/cas9) of primary limbal stem cells, as described in Roux et al. (Roux, 2018 Stem cells). mut-LSCs and WT controls were cultured, as described earlier (Roux, 2018 Stem cells), in Keratinocyte serum-free medium (K-sfm) (Gibco™, Life Technologies), supplemented with 25 μg/mL Bovine Pituitary Extract (BPE; Gibco™, Life Technologies), 0.2 ng/mL Epidermal Growth Factor (EGF, Peprotech), 0.4 mM CaCl2, 2 mM Glutamine (Gibco™, Life Technologies) and 100 U/mL Penicillin/Streptomicin (Gibco™, Life Technologies). Routine subcultures were obtained by detaching cells with StemPro™ Accutase™ Cell Dissociation Reagent (Gibco™, Life Technologies) and replating at 2,000 cells/cm^2 (T-LSCs) or 3,000 cells/cm^2 (PAX6^+/− T-LSCs). All cells were negative for mycoplasma contamination (monthly tested).
(§2) Rescue experiments: Mut-LSCs were treated with each compound (Duloxetine, Ritanserine and Topotecan) directly added into the culture medium from 0.5 μg/mL to 4 μg/mL. No cell toxicity has been observed up to 10 μg/mL. The optimal concentration for each experiment (qRT-PCR, cell migration and cell adhesion) was 0.5 μg/mL. As positive control, 2 μg/mL recombinant PAX6 protein coupled with an 11R-tag (recPAX6, LD Biopharma Inc) was added, as described elsewhere (Roux et al. 2018 Stem cells).
(§3) qRT-PCR analysis: Cells were treated for 10 h with either compound or recPAX6 for rescue experiments, and harvested as a dry pellet. RNA was then extracted using RNEasy Mini kit (Qiagen) and cDNA were synthetized from 1 μg RNA using iScript cDNA synthesis kit (Bio-Rad). Quantitative PCR were performed in triplicate using […] SYBR Green PCR Master Mix (Absource Biotools). Expression of each gene was calculated using the 2^−ΔΔCt method. Results are presented as fold change normalized to B2M house-keeping gene and relative to control (treated with protein buffer or untreated) T-LSCs. Specific primers sequences used are listed in Suppl.

[2] = tested on: PAX6 protein; assay: Western blot analysis of PAX6 protein production; format: cell-based, Human; parameters: rescue of PAX6 haploinsufficiency in vitro: unit of the concentration uncertain; conditions: for rescue of the production of endogenous PAX6 protein: mutated limbal stem cells
Procedure: as §1
[…] No cell toxicity has been observed up to 10 μg/mL. […] As positive control, 2 μg/mL recombinant PAX6 protein coupled with an 11R-tag (recPAX6, LD Biopharma Inc) was added, as described elsewhere (Roux et al. 2018 Stem cells).
Western blot analysis: Cells were harvested as a dry pellet, […] recPAX6 protein or its buffer for rescue experiments, lysed in RIPA buffer supplemented with Protease and Phosphatase Inhibitor Cocktail EDTA-Free (Roche) for 15 min on ice and centrifuged for 15 min at 4° C. at 15,000×g. Protein concentration was measured using Pierce BCA Protein Assay kit (Thermo Fisher Scientific) following manufacturer instructions. Thirty micrograms of total protein or 10 ng of recPAX6 protein were loaded on a SDS-PAGE gel (10%), transferred to nitrocellulose membranes using semi-dry method. Membranes were pre-stripped using Re-Blot Plus Strong solution (EMD Millipore) for 15 min, blocked twice for 5 min in 5% milk solution and incubated in primary antibody (PAX6, ab2237, Millipore, 1/1,000) overnight at 4° C. After 3 washing of 10 min in TBS with 0.2% Tween (TBS-T), membranes were incubated for 1 h with secondary antibody (Goat anti-rabbit HRP, BD Pharmingen) diluted in TBS-T 5% milk solution at 1/1,000. Proteins were visualized using chemiluminescence detection (Clarity™ Western ECL Substrate, Bio-Rad) on a gel imaging system (ImageQuant LAS 4000). Membranes were stripped again, incubated 90 min at room temperature with ACTIN (sc1615, 1/500, Santa Cruz) antibody diluted in TBS-T 5% milk, washed 3×10 min in TBS-T and incubated for 1 h in secondary antibody (Rabbit anti-goat HRP, 1/20,000, Jackson ImmunoResearch) at room temperature before revelation. Signal quantifications were made using ImageJ 1.49 software (NIH). Results are presented after ACTIN normalization.

[3] = tested on: mutated limbal stem cells (mut-LSCs); assay: In vitro migration test on IBIDI chambers; format: cell-based, Human; conditions: for rescue of cell migration: mutated limbal stem cells
Procedure: as §1
In vitro migration test: WT and mut-LSCs were seeded into culture-inserts 2 well at 25,000 cells per well in 6-well plates (IBIDI®). […] Sixteen hours after plating, the inserts were removed creating a gap of 500 μm between cells. Patches were overlaid with culture medium and closure of the gap was monitored for 10 h, taking pictures at regular time intervals. Gap width was measured using ImageJ 1.49 software (NIH). Results are presented as percent of gap width normalized at 100% at t=0 h.

[4] = tested on: Mut-LSCs; assay: Rescue experiments: compound added to the culture medium of Mut-LSCs (cell toxicity, optimal concentration); format: cell-based, Human; conditions: qRT-PCR, cell migration and cell adhesion
Procedure: as §1, §2

[5] = tested on: PAX6; assay: qRT-PCR analysis for PAX6 expression with amplicon sequencing; format: cell-based, Human
Procedure: as §1, with “T-LSCs).” for “T-LSCs). All cells were negative for mycoplasma contamination (monthly tested).”
as §3, with “Results are presented as fold change normalized to B2M house-keeping gene and relative to control (treated with protein buffer or untreated) T-LSCs.” left out

[6] = tested on: limbal stem cells (mut-LSC); conditions: mut-LSC with a nonsense mutation found in patients; cited from earlier work

## CNCC[C@H](Oc1cccc2ccccc12)c1cccs1 [Duloxetine, duloxetine]
[1]
  rescue of PAX6-target gene expression: able to rescue
[2]; FIG. 5: W mutant limbal cells
  PAX6 protein production: rescued
[2]
  rescue of the production of endogenous PAX6 protein: able to rescue
[3]
  rescue of cell migration: able to rescue
[4]
  optimal concentration for each experiment: 0.5 µg/mL

## Cc1nc2sccn2c(=O)c1CCN1CCC(=C(c2ccc(F)cc2)c2ccc(F)cc2)CC1 [Ritanserine, ritanserin]
[1]
  rescue of PAX6-target gene expression: able to rescue
[2]; FIG. 4: mutated LT (W) cells, western blot, 0.5, 1 or 5 mM
  PAX6 protein production: rescued
[2]
  rescue of the production of endogenous PAX6 protein: able to rescue
[3]
  rescue of cell migration: able to rescue
[4]
  optimal concentration for each experiment: 0.5 µg/mL

## CC[C@@]1(O)C(=O)OCc2c1cc1n(c2=O)Cc2cc3c(CN(C)C)c(O)ccc3nc2-1 [Topotecan, topotecan]
[1]
  rescue of PAX6-target gene expression: able to rescue
[2]; FIG. 1: mut-LT limbal stem cells, 0.5 (unit uncertain), 10 h, qRT-PCR for PAX6-target gene expression (A), western blot for PAX6 protein (B)
  rescue of PAX6 haploinsufficiency in vitro: can rescue
[2]
  rescue of the production of endogenous PAX6 protein: able to rescue
[3]; FIG. 2: mut-LT, 0.5 µg/mL, 2 h before migration start, IBIDI chambers
  rescue of migration of mutated limbal cells: can rescue
[3]
  rescue of cell migration: able to rescue
[5]; FIG. 3: mut-LSCs + Topotecan
  amplification of the mutated allele (amplicons sequenced): did not identified any amplification
[5]; FIG. 3: mutated cells (mut-LSC)
  WT allele transcription (PAX6 expression by qRT-PCR): activates
[5]; FIG. 3: treated WT-LSCs (normal LSCs)
  PAX6 expression by qRT-PCR: not enhanced
[5]; mutated limbal stem cells
  rescue of PAX6 gene expression at the RNA level: able to rescue
[4]
  optimal concentration for each experiment: 0.5 µg/mL

## recombinant PAX6 protein: recombinant PAX6 protein coupled with an 11R-tag (recPAX6, LD Biopharma Inc), positive control
[6]
  rescue of altered PAX6 target gene expression, cell adhesion, cell migration and proliferation: rescued
